From PubChem BioAssay AID330 (DTP/NCI, 2004) come the findings set out here.

“And” between values parts separate entries of the source, which are not always exact repeats. Equal entries are not always repeated. Inconclusive results and toxic doses are left out.

The test system of this experiment is P388 leukemia ip, CD2F1 mice, survival T/C. Briefly: NCI In Vivo Anticancer Drug Screen. Data for tumor model P388 Leukemia (intraperitoneal) in CD2F1 (CDF1) mice. Conditions: endpoint: median survival time, higher = longer survival. A digest of the protocol: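 Mice carrying the transplanted tumor received test compound or vehicle. Survival was recorded in each group, and the value is the treated-group measurement divided by that of the vehicle-treated control group.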

Setting [1] is: dose: 50.0 mg/kg/injection, schedule: Q01DX005 (ip), vehicle: saline.
The mark [2] stands for this setting: dose: 100.0 mg/kg/injection, schedule: Q01DX005 (ip), vehicle: saline.
[3] abbreviates: dose: 200.0 mg/kg/injection, schedule: Q01DX005 (ip), vehicle: saline.
Setting [4] is: dose: 12.5 mg/kg/injection, schedule: Q01DX005 (ip), vehicle: Klucel (hydroxypropylcellulose) (HPC).
[5] abbreviates: dose: 25.0 mg/kg/injection, schedule: Q01DX005 (ip), vehicle: Klucel (hydroxypropylcellulose) (HPC).
[6] abbreviates: dose: 50.0 mg/kg/injection, schedule: Q01DX005 (ip), vehicle: Klucel (hydroxypropylcellulose) (HPC).
Setting [7] is: dose: 200.0 mg/kg/injection, schedule: Q01DX005 (ip), vehicle: Klucel (hydroxypropylcellulose) (HPC).
Setting [8] is: dose: 50.0 mg/kg/injection, schedule: Q01DX009 (ip), vehicle: saline with Tween-80.
[9] abbreviates: dose: 100.0 mg/kg/injection, schedule: Q01DX009 (ip), vehicle: saline with Tween-80.
Setting [10] is: dose: 400.0 mg/kg/injection, schedule: Q01DX009 (ip), vehicle: saline with Tween-80.
Where [11] appears, read: dose: 100.0 mg/kg/injection, schedule: Q01DX001 (ip), vehicle: saline with Tween-80.
Where [12] appears, read: dose: 100.0 mg/kg/injection, schedule: Q01DX005 (ip), vehicle: Klucel (hydroxypropylcellulose) (HPC).
The mark [13] stands for this setting: dose: 50.0 mg/kg/injection, schedule: Q01DX009 (ip), vehicle: saline.
Setting [14] is: dose: 100.0 mg/kg/injection, schedule: Q01DX009 (ip), vehicle: saline.
Setting [15] is: dose: 60.0 mg/kg/injection, schedule: Q01DX005 (ip), vehicle: Klucel (hydroxypropylcellulose) (HPC).
The mark [16] stands for this setting: dose: 120.0 mg/kg/injection, schedule: Q01DX005 (ip), vehicle: Klucel (hydroxypropylcellulose) (HPC).
Setting [17] is: dose: 240.0 mg/kg/injection, schedule: Q01DX005 (ip), vehicle: Klucel (hydroxypropylcellulose) (HPC).
[18] abbreviates: dose: 50.0 mg/kg/injection, schedule: Q01DX009 (ip), vehicle: Klucel (hydroxypropylcellulose) (HPC).
[19] abbreviates: dose: 100.0 mg/kg/injection, schedule: Q01DX009 (ip), vehicle: Klucel (hydroxypropylcellulose) (HPC).
Setting [20] is: dose: 60.0 mg/kg/injection, schedule: Q01DX005 (ip), vehicle: saline with Tween-80.
Setting [21] is: dose: 120.0 mg/kg/injection, schedule: Q01DX005 (ip), vehicle: saline with Tween-80.
Where [22] appears, read: dose: 240.0 mg/kg/injection, schedule: Q01DX005 (ip), vehicle: saline with Tween-80.
Setting [23] is: dose: 200.0 mg/kg/injection, schedule: Q01DX009 (ip), vehicle: saline with Tween-80.
[24] abbreviates: dose: 200.0 mg/kg/injection, schedule: Q01DX009 (ip), vehicle: Klucel (hydroxypropylcellulose) (HPC).
Where [25] appears, read: dose: 12.5 mg/kg/injection, schedule: Q01DX009 (ip), vehicle: saline.
Where [26] appears, read: dose: 25.0 mg/kg/injection, schedule: Q01DX009 (ip), vehicle: saline.

Turning to `CC(C)[C@@]12O[C@@H]1CC13OC1[C@@H](O)CC[C@@]32O` (stereo partly drawn), the T/C reads like this: under setting [1], 105 % of control; under setting [2], 99 % of control; under setting [3], 103 % of control.

Take `Nc1nnc(SCCCCCCCCCCCCSc2nnc(N)s2)s1`: the T/C under setting [4] is 91 % of control, the T/C under setting [5] is 90 % of control, the T/C under setting [6] was 89 % of control and the T/C under setting [7] was 86 % of control.

On to `O=Cc1c[nH]c2ccc(NC(=O)OCc3ccccc3)cc12`, for which the T/C under setting [8] is 103 % of control, the T/C under setting [9] was 89 % of control and the T/C under setting [10] was 86 % of control.

As for `CCCCCCCCSCCN(CC)CC`, the T/C reads like this: under setting [1], 104 % of control; under setting [2], 103 % of control; under setting [3], 95 % of control.

In the case of `CSc1nc2n(Cc3cn(C)c(=O)n(C)c3=O)cc(C)cc-2c(=O)n1`, the T/C under setting [11] is 96 % of control; the T/C (dose: 200.0 mg/kg/injection, schedule: Q01DX001 (ip), vehicle: saline with Tween-80) is 94 % of control; the T/C (dose: 400.0 mg/kg/injection, schedule: Q01DX001 (ip), vehicle: saline with Tween-80) was 94 % of control.

On to `CC(C)Nc1nc(Cl)nc(Cl)n1`, for which the T/C reads like this: under setting [6], 98 % of control; under setting [12], 93 % of control.

In the case of `O=C1CCN2CO[C@H](c3ccccc3)C[C@@H]2C1`, the T/C reads like this: under setting [4], 103 % of control; under setting [5], 102 % of control; under setting [6], 102 % of control.

In the case of `C[CH2][Sn]([Br])([c]1ccccc1)[c]1ccccc1CN(C)C` (stereo not drawn), the T/C by setting is: under setting [13], 91 % of control; under setting [14], 98 % of control.

Consider `Nn1cnc2c(ncn2C2OC(CO)C(O)C2O)c1=O` (stereo not drawn), for which the T/C by setting is: under setting [15], 98 % of control; under setting [16], 99 % of control; under setting [17], 97 % of control.

Turning to `O=S(CF)c1ccc(Cl)cc1` (stereo not drawn), the T/C (dose: 100.0 mg/kg/injection, schedule: Q04DX003 (ip), vehicle: saline with Tween-80) was 93 % of control; the T/C (dose: 200.0 mg/kg/injection, schedule: Q04DX003 (ip), vehicle: saline with Tween-80) is 102 % of control; the T/C (dose: 400.0 mg/kg/injection, schedule: Q04DX003 (ip), vehicle: saline with Tween-80) was 107 % of control.

For the molecule `CC1(Cl)CC2OC3(Br)C=CC(C)(O)C2(CC1Br)C3(C)C` (stereo not drawn), the T/C by setting is: (dose: 12.5 mg/kg/injection, schedule: Q01DX009 (ip), vehicle: Klucel (hydroxypropylcellulose) (HPC)) 101 % of control; (dose: 25.0 mg/kg/injection, schedule: Q01DX009 (ip), vehicle: Klucel (hydroxypropylcellulose) (HPC)) 100 % of control; under setting [18], 100 % of control; under setting [19], 101 % of control.

Take `CC(/C=C/c1ccccc1)=N\NC(=S)Nc1ccc(Br)cc1`: the T/C (dose: 100.0 mg/kg/injection, schedule: Q04DX002 (ip), vehicle: Klucel (hydroxypropylcellulose) (HPC)) was 97 % of control.

In the case of `CC(=O)OC1OC(COS(C)(=O)=O)C(OC(C)=O)C(OS(C)(=O)=O)C1OC(C)=O` (stereo not drawn), the T/C under setting [13] is 92 % of control; the T/C under setting [14] was 118 % of control; the T/C (dose: 400.0 mg/kg/injection, schedule: Q01DX009 (ip), vehicle: saline) is 88 % of control.

Turning to `O=C(c1ccccc1)N1OCCc2ccccc21`, the T/C under setting [20] was 100 % of control, the T/C under setting [21] was 104 % of control and the T/C under setting [22] was 96 % of control.

Take `C(=C1/SC(c2ccccc2)=NC1c1ccccc1)/c1ccccc1` (stereo not drawn): the T/C was 92 % of control under setting [8], 88 % of control under setting [9] and 96 % of control under setting [23].

Turning to `COc1ccc(N=C2C(=Nc3ccc(OC)cc3)N(c3ccc(OC)cc3)C(=S)N2C(=O)c2ccc(Cl)cc2)cc1`, the T/C is, setting by setting: (dose: 50.0 mg/kg/injection, schedule: Q01DX005 (ip), vehicle: Klucel + Tween-80) 90 % of control; (dose: 100.0 mg/kg/injection, schedule: Q01DX005 (ip), vehicle: Klucel + Tween-80) 93 % of control; (dose: 200.0 mg/kg/injection, schedule: Q01DX005 (ip), vehicle: Klucel + Tween-80) 90 % of control.

`CCN(CC)Cc1c(C)[nH]c2c3c(ccc2c1=O)Oc1c(ccc2c(=O)c(CN(CC)CC)c(C)[nH]c12)O3`: the T/C by setting is: under setting [18], 96 % of control; under setting [19], 93 % of control; under setting [24], 96 % of control.

Regarding `C=CCCC(OC(C)C)OC(C)C`, the T/C by setting is: under setting [13], 98 % of control; under setting [14], 99 % of control; (dose: 200.0 mg/kg/injection, schedule: Q01DX009 (ip), vehicle: saline) 108 % of control.

With `C1COCCOCCNCCOCCOCCN1`, the T/C under setting [1] was 95 % of control and the T/C under setting [2] was 98 % of control.

As to `Oc1c(Br)cc(Br)c2ccccc12`, the T/C runs as follows: under setting [9], 105 % of control; under setting [23], 114 % of control; under setting [10], 111 % of control.

Consider `CNc1nc(C)nc(NC)n1`, for which the T/C by setting is: under setting [18], 91 % of control; under setting [19], 93 % of control; under setting [24], 90 % of control.

On to `C[N+](C)(C)CCCO`, for which the T/C is, setting by setting: under setting [25], 98 % of control; under setting [26], 94 % of control; under setting [13], 93 % of control.

With `CCOC(=O)c1ccc(NC(=O)OC2CCCC2)cc1`, the T/C under setting [20] is 92 % of control, the T/C under setting [21] is 90 % of control and the T/C under setting [22] is 89 % of control.

Take `Cc1cccc(-n2c(N)cc(=O)[nH]c2=S)n1`: the T/C was 100 % of control (dose: 25.0 mg/kg/injection, schedule: Q01DX001 (ip), vehicle: saline with Tween-80); 100 % of control (dose: 50.0 mg/kg/injection, schedule: Q01DX001 (ip), vehicle: saline with Tween-80); 109 % of control under setting [11].

As to `Cc1cccc(C)c1-n1c(C)nc2[nH]cc(C)c2c1=N`, the T/C under setting [4] was 99 % of control; the T/C under setting [5] was 97 % of control; the T/C under setting [6] is 100 % of control and 97 % of control.

Turning to `C#CCC(C(C)=O)C(C)=O.[C-]#[O+].[C-]#[O+].[C-]#[O+].[C-]#[O+].[C-]#[O+].[C-]#[O+].[Co].[Co]`, the T/C under setting [4] was 108 % of control; the T/C under setting [5] was 102 % of control; the T/C under setting [6] is 108 % of control and 95 % of control.

Turning to `O=C1C2CCC(CC2)C1C(c1ccccc1)c1ccccc1` (stereo not drawn), the T/C reads like this: under setting [8], 93 % of control; under setting [9], 91 % of control; under setting [23], 90 % of control.

On to `COc1cccc2c1C(=O)c1c(O)c3c(c(O)c1C2=O)C[C@@](O)(C(O)CO)C[C@@H]3OC1CC(NC(=O)C(F)(F)F)C(O)C(C)O1` (stereo partly drawn), for which the T/C (dose: 25.0 mg/kg/injection, schedule: Q01DX009 (ip), vehicle: other) was 151 % of control and 152 % of control.

As for `CN(C)N=Nc1ccc(C(N)=O)cc1`, the T/C was 101 % of control and 103 % of control and 93 % of control under setting [25]; 98 % of control and 99 % of control and 100 % of control under setting [26]; 98 % of control and 107 % of control and 91 % of control under setting [13]; 111 % of control and 96 % of control under setting [14].

For the molecule `CC(C)(Cl)C1ON1C(C)(C)C` (stereo not drawn), the T/C was 107 % of control under setting [20], 107 % of control under setting [21] and 108 % of control under setting [22].

Consider `CC12CC(=O)C3C(CCC4CC(OS(=O)(=O)O)CCC43C)C1CC1OC(=O)C=C12` (stereo not drawn), for which the T/C runs as follows: under setting [6], 98 % of control; under setting [12], 100 % of control; under setting [7], 94 % of control.

As to `CC(=O)c1c(C)oc(C)c1-c1ccc2c(c1)OCO2`, the T/C under setting [15] is 108 % of control, the T/C under setting [16] was 103 % of control and the T/C under setting [17] was 104 % of control.

In the case of `C=CCCCCn1c2ccccc2c2c(C)c3cnccc3c(C)c21`, the T/C was 100 % of control under setting [8], 115 % of control under setting [9] and 115 % of control under setting [23].

Take `CCCCCCCc1c(C)[nH]c2cc(OC)ccc2c1=O`: the T/C is 93 % of control under setting [8], 95 % of control under setting [9] and 94 % of control under setting [23].
